In assay [1] the test system is E. coli MG1655 ΔrecA::apra. The class given is cell-based.
In assay [2] the test system is E. coli. The following applies: tabulated from Antimicrobial Index Knowledgebase; cited from earlier work.

The structures appear in SMILES notation.

For `Nc1ncc2[nH]cnc2n1` [2AP, 2-aminopurine], in assay [1], the “fraction of cells resistant, CRB” value was found to be 1.17E−07; the “fraction of cells resistant, CTX” value was determined as 2.80E−06; the “fraction of cells resistant, FOS” value was 4.83E−04; the “fraction of cells resistant, KAN” value is 1.53E−03. Moreover, in assay [1], the “fraction of cells resistant, MIX” value came out at 2.03E−05; the “fraction of cells resistant, RIF” value came to 1.03E−05; the “fraction of cells resistant, SPC” value amounted to 2.50E−07; the “fraction of cells resistant, STR” value was found to be 3.17E−07. The “fraction of cells resistant, TET” value in assay [1] is listed as 0.00E+00.
As to `CCOS(C)(=O)=O` [EMS, ethyl methanesulfonate], in assay [1], the “fraction of cells resistant, CRB” value came to 0.00E+00; the “fraction of cells resistant, CTX” value was determined as 1.67E−07; the “fraction of cells resistant, FOS” value is 3.75E−04; the “fraction of cells resistant, KAN” value was determined as 8.17E−04. Further, in assay [1], the “fraction of cells resistant, MIX” value was 1.10E−04; the “fraction of cells resistant, RIF” value is listed as 6.68E−05; the “fraction of cells resistant, SPC” value worked out at 0.00E+00; the “fraction of cells resistant, STR” value stood at 1.33E−06. The “fraction of cells resistant, TET” value in assay [1] was 0.00E+00.
The term MIC denotes the lowest concentration found to suppress growth. On to `CC1(C)S[C@@H]2[C@H](NC(=O)C(C(=O)O)c3ccccc3)C(=O)N2[C@H]1C(=O)O` (some centres unmarked) [carbenicillin], for which, in assay [2], the MIC is 2 to 25 µg/mL.
With `CO/N=C(\C(=O)N[C@@H]1C(=O)N2C(C(=O)O)=C(COC(C)=O)CS[C@H]12)c1csc(N)n1` [cefotaxime], the MIC in assay [2] was 0.016 to 0.25 µg/mL.
Regarding `C[C@@H]1O[C@@H]1P(=O)(O)O` [fosfomycin], the minimal inhibitory concentration (MIC) in assay [2] was 0.125 to 8 µg/mL.
For `Cc1ncc([N+](=O)[O-])n1CCO` [metronidazole], the minimal inhibitory concentration (MIC) in assay [2] was 8 to 32 µg/mL.
With `CCn1cc(C(=O)O)c(=O)c2cc(F)c(N3CCNCC3)cc21` [norfloxacin], the MIC in assay [2] was 0.016 to 0.125 µg/mL.
On to `CO[C@H]1/C=C/O[C@@]2(C)Oc3c(C)c(O)c4c(O)c(c(/C=N/N5CCN(C)CC5)c(O)c4c3C2=O)NC(=O)/C(C)=C\C=C\[C@H](C)[C@H](O)[C@@H](C)[C@@H](O)[C@@H](C)[C@H](OC(C)=O)[C@@H]1C` [rifampin], for which the minimum inhibitory concentration (MIC) in assay [2] was 0.5 to 16 µg/mL.
Regarding `CN[C@@H]1[C@H](O)[C@H](NC)[C@H]2O[C@@]3(O)C(=O)C[C@@H](C)O[C@H]3O[C@@H]2[C@H]1O` [spectinomycin], the minimal inhibitory concentration (MIC) in assay [2] was 8 to 64 µg/mL.
As to `[H]/N=C(/N)N[C@H]1[C@H](O)[C@@H](O)[C@H](O[C@@H]2O[C@@H](C)[C@](O)(C=O)[C@H]2O[C@@H]2O[C@@H](CO)[C@H](O)[C@@H](O)[C@@H]2NC)[C@@H](N/C(N)=N\[H])[C@@H]1O` [streptomycin], the MIC in assay [2] is 1 to 16 µg/mL.

Values taken from patent US20220267754A1, “VECTOR-BASED MUTAGENESIS SYSTEM” (priority 2015, published 2022).
